In BindingDB's records for doi:10.1021/jm00102a019 (Oregon State University, 1993):

Target: Delta-type opioid receptor (Cavia porcellus)
Experiment: Tested for inhibitory effect on binding of [3H]DPDPE to opioid receptor delta in guinea pig cerebellum membranes

| Structure (SMILES) | Ki [µM] |
| --- | --- |
| C=CCN(CC=C)[C@@H](Cc1ccc(O)cc1)C(=O)NCC(=O)NCC(=O)N[C@@H](Cc1ccccc1)C(=O)N[C@@H](CC(C)C)C(=O)N[C@@H](CCCNC(=N)N)C(=O)N[C@@H](CCCNC(=N)N)C(=O)N[C@H](C(=O)N[C@@H](CCCNC(=N)N)C(=O)N1CCC[C@@H]1C(=O)N[C@@H](CCCCN)C(=O)O)[C@@H](C)CC | 0.149 |
| CC[C@H](C)[C@H](NC(=O)[C@H](CCCNC(=N)N)NC(=O)[C@H](CCCNC(=N)N)NC(=O)[C@H](CC(C)C)NC(=O)[C@H](Cc1ccccc1)NC(=O)CNC(=O)CNC(=O)[C@H](Cc1ccc(O)cc1)NCC1CC1)C(=O)N[C@@H](CCCNC(=N)N)C(=O)N1CCC[C@@H]1C(=O)N[C@@H](CCCCN)C(=O)O | 0.558 |
